# Laboratory results reported in paper PMC11434868, “Synthesis and Antiproliferative Effect of 3,4,5-Trimethoxylated Chalcones on Colorectal and Prostatic Cancer Cells” (Pharmaceuticals, 2024).
# Where two headings read alike, the source gives them in different places.
# Experiments:
# [1] = test system: HCT116; assay: MTT assay, antiproliferative effect on HCT116; assay type: cell-based; settings: Homo sapiens
# Protocol: (§1) Human CRC (HCT116 and HT-29) and PCa (DU145 and PC3) cell lines were purchased from the American Type Culture Collection (ATCC—LGC Standards, Molsheim, France). All cells were grown in RPMI 1640 medium supplemented with 10% FBS, 1% L-glutamine, 100 U/mL penicillin, and 100 μg/mL streptomycin. Cultures were maintained in a humidified atmosphere containing 5% CO2 at 37 °C. Cells were seeded in 75 cm^2 culture flasks at 1.2 × 10^4 cells/cm^2 for HCT116, DU145, and PC3 cells, and 2.0 × 10^4 for HT-29 cells. Cells were grown for 24 h in culture medium prior to exposure or not to obtain the synthesized compounds. Stock solutions (10^−2 M in DMSO) of each compound were diluted in culture medium to obtain appropriate final concentrations.
# (§2) • (a) MTT assay: The antiproliferative effect of all compounds was determined using MTT assay (a metabolic activity test). Briefly, cells were seeded in 96-well culture plates at 4 × 10^3 cells/well for HCT116, PC3, and DU145 cells and 6 × 10^3 cells/well for HT-29 cells (100 µL/well), and grown for 24 h in culture medium prior to exposure or not to obtain compounds 1–15 with concentrations ranging from 5 nM to 50 μM. After 24 and 48 h of treatment, MTT (5 mg/mL in PBS) was added and incubated for another 3 h. MTT was then removed from the wells before adding 100 μL/well of DMSO. The optical density was detected with a microplate reader (Multiskan FC, Thermoscientific, Bordeaux, France) at 550 nm and cell viability was expressed as a percentage of each treatment condition compared to control cells. IC50 values were calculated for all compounds from the dose–response curve. Data are expressed as the arithmetic means ± standard error of the mean (SEM) of separate experiments. All experiments were performed at least in triplicate. • (b) Trypan blue dye exclusion method: Cells were grown for 24 h then treated with compounds 10 and 13 at indicated concentrations. After 48 h of treatment, cells were trypsinized and resuspended in complete medium. Each sample was mixed with Trypan blue solution (0.14% in HBSS, Invitrogen-GIBCO, ThermoFisher, Illkirch, France). Colored (non-viable) and dye-excluding (viable) cells were counted with the LUNA-II automated cell Counter (Logos Biosystems; MC2, Aubière, France). The control was normalized to 100% including viable and dead cells. The results indicated on the histograms were expressed as the percentage of cells compared to the control. IC50 values were determined from the percentages of viable cells compared to the control.
# [2] = test system: HT-29; assay: MTT assay, antiproliferative effect on HT-29; assay type: cell-based, human
# Protocol: as §1, §2
# [3] = test system: DU145; assay: MTT assay, antiproliferative effect on DU145; assay type: cell-based; settings: Homo sapiens
# Protocol: as §1, §2
# [4] = test system: PC3; assay: MTT assay, antiproliferative effect on PC3; assay type: cell-based; settings: Homo sapiens
# Protocol: as §1, §2
# [5] = test system: cellular microtubules in HeLa cells; assay: Quantitative assay of the cellular microtubule content (immunoluminescence); assay type: cell-based; settings: 30 min incubation
# Protocol: The assay was realized as described by Laisne et al.. Briefly, 7500 HeLa cells were seeded in 96-well microplates (#655086, Greiner bioOne, Courtaboeuf, France) in 100 µL of complete medium per well and then incubated at 37 °C in 5% CO2 for 24 h. Cells were then treated for 30 min at 37 °C with the compounds at concentrations ranging from 0.1 to 1000 µM (1 microplate per molecule, 1 concentration per column), with 0.1% DMSO used as […] (6 wells per microplate). After medium aspiration, treated cells were permeabilized for 10 min using 100 µL per well of warmed (37 °C) OPT buffer (80 mM Pipes, 1 mM EGTA, 1 mM MgCl2, 0.5% Triton X-100, and 10% glycerol, pH 6.8). Cells were fixed overnight at room temperature using 100 µL per well of 4% formaldehyde (Sigma Aldrich, #252549, Saint-Quentin-Fallavier, France) in PBS. Cells were washed 3 times in PBS, 0.1% Tween-20 (100 µL per well), then primary anti-alpha-tubulin antibody (clone α3A1), 1:5000 in PBS 2% Bovine Serum Albumin (BSA), was added for 45 min. Cells were washed twice again and secondary anti-mouse antibody coupled to HRP (1:2000 in PBS 2% BSA, #715-035-150, Jackson Immuno-Research Laboratories, Cambridgeshire, UK) was added for 45 min. Then, cells were washed again with PBS and 100 µL of ECL substrate (#170-5061, Bio-Rad Laboratories Inc., Hercules, CA, USA) was injected in each well using the FLUOstar OPTIMA Microplate Reader (BMG Lab technology, Champagny-sur-Marne, France). The luminescent signal was read immediately after ECL injection. IC50 values were calculated using GraphPad Prism software (10.3.1 version) and are presented in the text as means ± SEM of three independent experiments.
# [6] = test system: human CRC (HCT116 and HT-29) and human PCa (DU145 and PC3) cell lines; assay: MTT assay, summary statements over the cell lines; assay type: cell-based; settings: Homo sapiens, 48 h; read-out: IC50 over the four cell lines
# Protocol: as §1, §2
# [7] = HCT-116, 24 h, read-out: IC50 HCT116 24 h
# [8] = HCT-116, 48 h, read-out: IC50 HCT116 48 h
# [9] = Homo sapiens, HT-29, 24 h, 24 h, read-out: IC50 HT-29 24 h
# [10] = Homo sapiens, HT-29, 48 h, 48 h, read-out: IC50 HT-29 48 h
# [11] = DU-145, 24 h, read-out: IC50 DU145 24 h
# [12] = DU-145, 48 h, read-out: IC50 DU145 48 h
# [13] = PC-3, 24 h, read-out: IC50 PC3 24 h
# [14] = PC-3, 48 h, read-out: IC50 PC3 48 h
# [15] = 48 h, read-out: IC50 HT-29 48 h
SMILES,"IC50 [1, 7]","IC50 [1, 8]","IC50 [2, 9]","IC50 [2, 10]","IC50 [3, 11]","IC50 [3, 12]","IC50 [4, 13]","IC50 [4, 14]",IC50 depolymerization of cellular microtubules [5],"IC50 [2, 15]",IC50 [6],melting point,activity against the HT-29 cell line [2]
"COc1cc(C(=O)/C=C/c2ccccc2O)cc(OC)c1OC [chalcone 1, (E)-3-(2-hydroxyphenyl)-1-(3,4,5-trimethoxyphenyl)prop-2-en-1-one]",4.54 ± 0.65 µM,3.27 ± 0.11 µM,10.8 ± 0.57 µM,9.65 ± 0.12 µM,5.33 ± 0.42 µM,3.6 ± 0.1 µM,5.04 ± 0.29 µM,4.23 ± 0.35 µM,–,–,–,–,–
"COc1cc(C(=O)/C=C/c2ccc(O)cc2)cc(OC)c1OC [chalcone 3, (E)-3-(4-hydroxyphenyl)-1-(3,4,5-trimethoxyphenyl)prop-2-en-1-one]",11.62 ± 0.06 µM,12.1 ± 0.44 µM,17.9 ± 0.69 µM,15.1 ± 0.46 µM,11.3 ± 0.48 µM,11.2 ± 0.44 µM,10.94 ± 0.1 µM,9.85 ± 0.43 µM,no effect,–,–,–,–
"COc1cc(O)ccc1/C=C/C(=O)c1cc(OC)c(OC)c(OC)c1 [chalcone 4, (E)-3-(4-hydroxy-2-methoxyphenyl)-1-(3,4,5-trimethoxyphenyl)prop-2-en-1-one]",8.79 ± 0.39 µM,3.98 ± 0.22 µM,21.3 ± 0.94 µM,17.7 ± 0.29 µM,4.2 ± 0.2 µM,2.69 ± 0.22 µM,4.8 ± 0.48 µM,3.05 ± 0.12 µM,–,–,–,–,–
"COc1ccc(O)cc1/C=C/C(=O)c1cc(OC)c(OC)c(OC)c1 [chalcone 5, (E)-3-(5-hydroxy-2-methoxyphenyl)-1-(3,4,5-trimethoxyphenyl)prop-2-en-1-one]",8.72 ± 0.41 µM,4.92 ± 0.49 µM,25.2 ± 1.28 µM,> 20 µM,5.5 ± 0.26 µM,4.37 ± 0.3 µM,5.54 ± 0.31 µM,4 ± 0.3 µM,–,22.1 ± 0.48 µM,–,–,–
"COc1ccc(O)c(/C=C/C(=O)c2cc(OC)c(OC)c(OC)c2)c1 [chalcone 6, (E)-3-(2-hydroxy-5-methoxyphenyl)-1-(3,4,5-trimethoxyphenyl)prop-2-en-1-one]",5.27 ± 0.37 µM,3.44 ± 0.42 µM,12.3 ± 0.37 µM,10.6 ± 0.62 µM,2.84 ± 0.14 µM,2.7 ± 0.1 µM,3.31 ± 0.22 µM,2.81 ± 0.16 µM,–,–,–,–,–
"COc1ccc(/C=C/C(=O)c2cc(OC)c(OC)c(OC)c2)c(O)c1 [chalcone 7, (E)-3-(2-hydroxy-4-methoxyphenyl)-1-(3,4,5-trimethoxyphenyl)prop-2-en-1-one]",13.4 ± 0.21 µM,3.99 ± 0.16 µM,14.4 ± 0.65 µM,11.4 ± 0.68 µM,2.99 ± 0.33 µM,1.33 ± 0.16 µM,2.57 ± 0.44 µM,1.47 ± 0.27 µM,–,–,–,–,–

# The next lines start with results.
"IC50 [1, 7]","IC50 [1, 8]","IC50 [2, 9]","IC50 [2, 10]","IC50 [3, 11]","IC50 [3, 12]","IC50 [4, 13]","IC50 [4, 14]",IC50 depolymerization of cellular microtubules [5],"IC50 [2, 15]",IC50 [6],melting point,SMILES,activity against the HT-29 cell line [2]
8.58 ± 0.28 µM,3.48 ± 0.19 µM,32.6 ± 0.51 µM,> 20 µM,3.75 ± 0.15 µM,2.41 ± 0.08 µM,4.42 ± 0.24 µM,2.97 ± 0.13 µM,–,26.8 ± 0.4 µM,–,–,"COc1cc(/C=C/C(=O)c2cc(OC)c(OC)c(OC)c2)ccc1O [chalcone 9, (E)-3-(4-hydroxy-3-methoxyphenyl)-1-(3,4,5-trimethoxyphenyl)prop-2-en-1-one]",–
25.2 ± 0.48 µM,16.6 ± 0.79 µM,35.6 ± 0.94 µM,> 20 µM,22.3 ± 0.76 µM,15.6 ± 0.84 µM,24.5 ± 0.64 µM,17.7 ± 0.55 µM,–,23.6 ± 0.37 µM,> 15 µM,217 to 219 °C,"COc1cc(C(=O)/C=C/c2ccc(=O)[nH]c2)cc(OC)c1OC [chalcone 11, (E)-5-(3-oxo-3-(3,4,5-trimethoxyphenyl)prop-1-en-1-yl)pyridin-2(1H)-one]",–
14.2 ± 0.41 µM,13.2 ± 0.4 µM,13.6 ± 0.3 µM,13.2 ± 0.42 µM,10.8 ± 0.34 µM,11.7 ± 0.29 µM,11.5 ± 0.28 µM,12.2 ± 0.23 µM,–,–,–,215 to 217 °C,"COc1cc(C(=O)/C=C/c2coc3ccccc3c2=O)cc(OC)c1OC [chalcone 12, (E)-3-(3-oxo-3-(3,4,5-trimethoxyphenyl)prop-1-en-1-yl)-4H-chromen-4-one]",–
15.3 ± 0.52 µM,13.3 ± 0.3 µM,22.9 ± 0.72 µM,17 ± 1.41 µM,13.2 ± 0.49 µM,12.4 ± 0.2 µM,14.11 ± 0.04 µM,12.8 ± 0.37 µM,–,–,–,183 to 185 °C,"COc1cc(C(=O)/C=C/c2coc3ccc(C(C)C)cc3c2=O)cc(OC)c1OC [chalcone 14, (E)-6-isopropyl-3-(3-oxo-3-(3,4,5-trimethoxyphenyl)prop-1-en-1-yl)-4H-chromen-4-one]",–
5.84 ± 0.28 µM,14.1 ± 0.27 µM,> 50 µM,–,3.88 ± 0.32 µM,7.09 ± 0.52 µM,6.48 ± 0.4 µM,7.6 ± 0.44 µM,–,–,–,–,"COc1cc(C(=O)/C=C/c2coc3ccc(O)cc3c2=O)cc(OC)c1OC [chalcone 15, (E)-6-hydroxy-3-(3-oxo-3-(3,4,5-trimethoxyphenyl)prop-1-en-1-yl)-4H-chromen-4-one]",not active
